Measurements taken from patent publication EP3006939A1, “Histidine-rich Glycoprotein as a marker for hepatic Farnesoid X receptor activation” (Gilead Sciences, Inc., priority 2014, dated 2016).
Where “and” joins values, the source holds several entries; their conditions need not be identical. Equal entries are not always repeated. Entries after “also recorded” stand apart in the source; their conditions may differ. Where two headings read alike, the source gives them in different places.

Columns and labels:
[1] = tested on: HepaRG cells; test: Microarray experiment, genome wide mRNA array analysis; format: cell-based, human; settings: 1 µM, 24 hours, vs DMSO vehicle; for Fold changes to "DMSO", TBP mRNA: control gene
Description: HepaRG cells were obtained plated from Biopredic International (# HPR203-MW96, Rennes, France) and cultivated in 6-well plates using the media and protocol supplied by the manufacturer. Cells were cultivated in induction medium (Biopredic International) with 1 µM of PX20350 (E. Hambruch et al., J. Pharmacol. Exp. Ther. 2012, 343, 556) diluted from a 20 mM stock solution in DMSO or DMSO as a vehicle control for 24 hours. Total RNA was isolated following the instructions of the RNeasy 96 RNA isolation kit (Qiagen, Hilde, Germany) and 200 ng total RNA used for a genome wide mRNA array analysis done as a fee for service at the Genomics & Pro-teomics Core Facility of the German Research Facility using the human Sentrix-6 V3 (4213572043) array from Illumina and standard experimental kits and protocols supplied by the manufacturer (Illumina Inc. San Diego U.S.A.).
This upregulation was similar to that (2.7 fold) of the known direct FXR target gene NR0B2 (SHP, Small heterodimer partner). In comparison, TBP mRNA (TATA box binding protein) was not changed in relative abundance (Table 1).

[2] = tested on: Huh7 human hepatoma cells; test: Induction of HRG and SHP mRNAs, RT-qPCR normalized to TBP; format: cell-based; settings: Huh-7, 16 hours
Description: (§1) Huh7 (# JCRB0403) cells were obtained from the Health Science Research Resources Bank, Osaka, Japan. Cells were cultivated in MEM containing 8.6% FCS supplemented with 2 mM L-Alanyl-L-Glutamine (all purchased via Sigma-Aldrich, Munich, Germany) in presence of 1 µM of PX20606 or DMSO as a vehicle for 16 hours. Total RNA from cells grown in 96 well tissue plates (Huh7, HepaRG and 3D human liver microtisues) were isolated following the instructions of the RNeasy 96 RNA isolation kit (Qiagen, Hilde, Germany) and cDNA's were synthesized from 1/25th of the isolated total RNA from one 96 well using Superscript II reverse Transcriptase (Life Technologies, Carlsbad, U.S.A.). Quantitative PCR was performed and analyzed using Absolute QPCR Rox Mix (Life Technologies, Carlsbad, U.S.A.) and a 384-format ABI 7900HT Sequence Detection System (Applied Biosystems, Darmstadt, Germany). Gene expression was expressed in arbitrary units and normalized relative to the housekeeping gene TATA box binding protein (TBP). The TBP normalized mRNA levels were plotted for HRG and SHP in Figure 1 (number of replicates n = 6). Table 2: Primer and probe sequences.

[3] = biological target: T1, human FXR (Homo sapiens, UniProt Q96RI1); test: Luciferase reporter assay with human HRG promoter fragment in Huh7 cells co-transfected with an FXR expression plasmid; format: cell-based; settings: FXR exogenously expressed, 1 µM, 16 h
T1 sequence (Q96RI1 1-486): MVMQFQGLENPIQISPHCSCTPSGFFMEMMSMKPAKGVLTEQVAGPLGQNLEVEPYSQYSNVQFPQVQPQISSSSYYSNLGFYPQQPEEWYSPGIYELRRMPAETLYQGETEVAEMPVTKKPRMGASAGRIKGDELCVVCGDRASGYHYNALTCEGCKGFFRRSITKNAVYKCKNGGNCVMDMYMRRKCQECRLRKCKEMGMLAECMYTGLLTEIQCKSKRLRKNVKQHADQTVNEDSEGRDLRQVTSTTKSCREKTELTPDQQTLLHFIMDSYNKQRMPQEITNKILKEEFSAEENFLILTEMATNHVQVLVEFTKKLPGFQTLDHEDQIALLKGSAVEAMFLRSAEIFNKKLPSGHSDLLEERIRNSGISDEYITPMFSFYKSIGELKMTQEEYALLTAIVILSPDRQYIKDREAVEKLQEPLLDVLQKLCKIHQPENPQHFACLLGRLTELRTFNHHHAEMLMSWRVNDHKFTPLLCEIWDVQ
Text: A human HRG promoter fragment was cloned as a Xhol-Hindlll fragment (from position -1,973 till +8 with respect to the mRNA starting nucleotide at +1) using the oligonucleotides […] (SEQ ID No. 10) and […] (SEQ ID No. 11) into the Xhol and Hindlll sites of pGL2basic (Promega, Madison, U.S.A.). The IR1 and ER2 sites were mutated using the primers of Table 3. Table 3: Primer sequences
The reporter plasmids pGL2-FXR-RE (FXR-RE), pGL2-PHRG (wt), pGL2-PHRG-IR1mut (IR1mut) and pGL2-PHRG-ER2mut (ER2mut) and pGL2-PHRG-IR1/ER2 (DM) (each 50 ng/well), were co-transfected with pTRex-Dest30-hFXR (20 ng/well) and pCMV-RL (5 ng/well, constitutively expressing the Renilla luciferase under control of a CMV promotor as an internal control) into Huh7 cells using lipofection with Polyethylenimine and cultivated in presence or absence of 1 µM of the FXR agonist PX20606 or DMSO as a vehicle control for 16 h followed by cell lysis and determination of luciferase activities as described in U. Deuschle et al., PLoS One 2012, 7, e43044.

[4] = tested on: human primary Upcyte® Hepatocytes; test: Induction of HRG transcription, RT-qPCR normalized to TBP; format: cell-based; settings: Hepatocyte, 24 hours
Description: as §1, with “Table 2: Primer and probe sequences.” left out
Upcyte® hepatocytes (Cat# UH0-000-KA00 donor 10-03) derived from primary hepatocytes of a donor were cultivated in 96 well plates in high performance medium (Medicyte, Heidel-berg, Germany). Isolation of total RNA followed by quantitative qPCR was done as described in Example 2.

[5] = tested on: HepG2-FXR5 cells; test: as above; format: cell-based; settings: Homo sapiens, 24 hours
Description: as §1, with “The TBP normalized mRNA levels were plotted for HRG and SHP in Figure 1 (number of replicates n = 6). Table 2: Primer and probe sequences.” left out
HepG2-FXR5 cells (described in U. Deuschle et al., PLoS One. 2012, 7, e43044) were cultivated in 96 well plates in RPMI medium supplemented with 8.6% FCS and supplemented with 2 mM L-Alanyl-L-Glutamine (all purchased via Sigma-Aldrich, Munich, Germany). Isolation of total RNA followed by quantitative qPCR was done as described in Example 2.

[6] = tested on: HepG2-FXR5 cells; test: Detection of secreted HRG in cell supernatant by Ni-NTA agarose collection and Western blot; format: cell-based, human; settings: 1 µM, 48 hours, vs DMSO, Western blot
Description: HepG2-FXR5 cells (described in U. Deuschle et al., PLoS One. 2012, 7, e43044) were cultivated in T75 flasks in RPMI medium supplemented with 0,2% BSA, 2 mM L-Alanyl-L-Glutamine (Sigma-Aldrich, Munich, Germany) and 1x Insulin-Transferrin-Selenium (#51500-056, Life Technolgies, Carlsbad, USA). Each 10 ml supernatant from cells grown in presence of 1 µM PX20606 or DMSO as vehicle for 48 hours were mixed with 100 µL Ni-NTA agarose slurry (#1018240, Qiagen, Hilden, Germany) for 1 h, the slurry was collected by centrifugation and after 3 washes with 10 mL 1xPBS resuspended in 100 µL SDS sample buffer. Western blot was performed (as described in U. Deuschle et al., PLoS One 2012, 7, e43044) and HRG detected using polyclonal mouse-anti human HRG antibodies (ab67807, Abcam, Cambridge, UK).

[7] = read-out: HRG mRNA upregulated compared to DMSO
[8] = read-out: known direct FXR target gene (SHP mRNA) upregulated compared to DMSO

Row | Fold changes to "DMSO", NR0B2 (SHP) mRNA [1] [fold] | Fold changes to "DMSO", HRG mRNA ([1]; 1440 min) | Fold changes to "DMSO", TBP mRNA ([1]; 1440 min) | activity of HRG promoter with mutated ER-2 site, luciferase reporter [3] | activity of HRG promoter with mutated IR-1 site, luciferase reporter [3] | activity of HRG promoter (wt, -1973 to +8) luciferase reporter ([3]; vs DMSO) | Structure (SMILES) | Fold changes to "DMSO", TBP mRNA [1] | fold induction at 1 µM [2, 7] | fold induction at 1 µM [2, 8] | fold induction at 1 µM [4, 7] | fold induction at 1 µM [4, 8] | fold induction at 1 µM [5, 7] | fold induction at 1 µM [5, 8] | amount of secreted HRG [6]
1 | 2.7 | 2 fold and 2.0 fold | 1.0 | – | – | – | CN(Cc1ccc(C(=O)O)cc1)c1ccc(OCc2c(-c3c(Cl)cccc3Cl)noc2C2CC2)nc1C(F)(F)F [PX20350] | not changed | – | – | – | – | – | – | –
2 | – | – | – | loss of FXR/FXR agonist responsitivity | reduce the activity | active | O=C(O)c1ccc(C2CC2c2ccc(OCc3c(-c4c(Cl)cccc4Cl)noc3C3CC3)cc2Cl)cc1 (centres unmarked) [PX20606, 4-(2-(2-chloro-4-((5-cyclopropyl-3-(2,6-dichlorophenyl)isoxazol-4-yl)methoxy)phenyl)cyclopropyl)benzoic acid] | – | ~3.5 | ~4 | ~11 | ~10 | ~20 | ~6 | increased; also recorded: up-regulated
